With `ClC(CCCCC(Cl)CC(Cl)(Cl)Cl)CC(Cl)(Cl)Cl` (configuration not stated) the logP was 6.71.
Work on `ClC(CCC(Cl)C(Cl)CCC(Cl)CC(Cl)(Cl)Cl)CC(Cl)(Cl)Cl` (configuration not stated) yielded a logP of 6.72.
Work on `ClCC(Cl)CCC(Cl)C(Cl)CCC(Cl)CCl` (configuration not stated) yielded a logP of 4.02.
For `CC(Cl)CCC(Cl)C(Cl)CCC(C)Cl` (configuration not stated), the logP was 4.4.
With `ClC(CCCCCC(Cl)CC(Cl)(Cl)Cl)CC(Cl)(Cl)Cl` (configuration not stated) the logP was 7.23.
Molecule `ClCC(Cl)CCCCCCC(Cl)CCl` (configuration not stated) has a logP of 5.01.
`CCCCC(Cl)C(Cl)CCC(Cl)CCl` (configuration not stated) gave a logP of 4.93.
With `ClC(CCCCCCC(Cl)CC(Cl)(Cl)Cl)CC(Cl)(Cl)Cl` (configuration not stated) the logP was 7.75.
`ClCC(Cl)CCC(Cl)C(Cl)CCC(Cl)CC(Cl)(Cl)Cl` (configuration not stated) showed a logP of 5.4.
For `ClCC(Cl)CCC(Cl)C(Cl)(Cl)CCC(Cl)CCl` (configuration not stated), the logP was 4.2.
Work on `CC(Cl)CCC(Cl)C(Cl)CCC(Cl)CCl` (configuration not stated) yielded a logP of 4.19.
`ClCC(Cl)CCCCCCC(Cl)CC(Cl)(Cl)Cl` (configuration not stated) showed a logP of 6.42.

Source: the SangsterLogP compilation
